Experimental findings from publication PMC8583042, “New Hybrid Compounds Combining Fragments of Usnic Acid and Thioether Are Inhibitors of Human Enzymes TDP1, TDP2 and PARP1” (International Journal of Molecular Sciences, 2021) are described below.

Broadly, the CC50 is the concentration giving 50% cytotoxicity.

What all share (format): cell-based
Data set [1] can be described thus: EZ4U colorimetric cytotoxicity test, HEK293A. The settings on record: human. The text has this:
The low intrinsic cytotoxicity of the additional drug component in the clinically used anticancer cocktails with traditional drugs is very important for treatment. This approach in chemotherapy can reduce the potential resulting toxic load on the body in the case of a combined action of these inhibitors on the activity of several targets. […] The effects of the tested compounds on cell survival are shown on Figure 4 and the CC50 values for three cell lines are shown in Table 1. The intrinsic cytotoxicity of a number of the studied compounds is quite high, namely, they have close IC50 values against the TDP1 and CC50 values on one or several studied cell lines. Most of the compounds generally were more toxic for the HEK293FT and HeLa cell lines than for the HEK293A cell line (Table 1 and Figure 4). The cytotoxicity of the three leader compounds, 7g, 10a, and 7h, was quite high. […] Compound 10b was one of the least toxic among the ten tested compounds.
Cytotoxicity of the compounds was examined against human cell lines HEK293A (human embryonic kidney)—WT, TDP1 deficient (Tdp1-/-), PARP1 deficient (PARP1-/-), and HeLa (cervical cancer) using an EZ4U colorimetric test (Biomedica, Vienna, Austria). The HEK293A cell line was obtained from Thermo Fisher Scientific (Waltham, MA, USA), and the HeLa cell line was obtained from the Russian Cell Culture Collection (RCCC) Institute of Cytology RAS, St. Petersburg, Russia. The cells were grown in DMEM/F12 medium (Gibco, Thermo Fisher Scientific, Waltham, MA, USA), with 1x GlutaMAX (Gibco, Thermo Fisher Scientific, Waltham, MA, USA), 50 IU/mL penicillin, 50 μg/mL streptomycin (MP Biomedicals), and in the presence of 10% fetal bovine serum (Biolot, Saint-Petersburg, Russia) in a 5% CO2 atmosphere. Cells were grown in the presence of 1% DMSO in the control wells. After the formation of a 30–50% monolayer, the tested compounds were added to the medium, and the cell culture was monitored for 3 days. The values were normalized to their own control in each case. At least three independent experiments were carried out. The 50% cytotoxic concentration (CC50) was defined as the compound concentration that reduced the cell viability by 50% when compared to the untreated controls. The compound concentration that caused 50% cell growth inhibition was determined using OriginPro 8.6.0 software (OriginLab, Northampton, MA, USA). The measurements were carried out in three independent experiments.

The nature of data set [2]: Colorimetric cytotoxicity test, HEK293A PARP1-/-. The settings on record: human, PARP1-/- HEK293A cells; PARP1-/- cell line, intrinsic cytotoxicity (Figure 6); read-out: CC50. The source says:
(§1) In our previous works, we checked the cytotoxic effect of Tpc and the TDP1 inhibitors—monoterpene 3-carene-derived compounds [48, 49] and UA combined with monoterpenoids, measured separately and jointly with Tpc—using a panel of HEK293FT and HEK293A Tdp1 knockout isogenic clones. […] The data on the HEK293FT mutants were of low reproducibility, which is why we decided to change the basic cell line to HEK293A [49]. In this work, we created new PARP1-/- HEK293A cells using the CRISPR–Cas9 approach (Figure S27). […] We checked the intrinsic cytotoxicity of the leader compound (10a) on the HEK293 wild type and TDP1-/- and PARP1-/- cell lines using a colorimetric test (Figure 6). […] There was no difference between the WT and mutant cells.
(§2) Cytotoxicity of the compounds was examined against human cell lines HEK293A (human embryonic kidney)—WT, TDP1 deficient (Tdp1-/-), PARP1 deficient (PARP1-/-), and HeLa (cervical cancer) using an EZ4U colorimetric test (Biomedica, Vienna, Austria). […] After the formation of a 30–50% monolayer, the tested compounds were added to the medium, and the cell culture was monitored for 3 days. […] The compound concentration that caused 50% cell growth inhibition was determined using OriginPro 8.6.0 software (OriginLab, Northampton, MA, USA). […]

Data set [3] is described as follows: Colorimetric cytotoxicity test, HEK293A Tdp1-/-. The settings on record: human, HEK293A Tdp1-/- cells; TDP1-/- cell line, intrinsic cytotoxicity (Figure 6).
From the text: as §1, §2

Turning to `CC(=O)C1=C(O)C=C2Oc3c(C(=O)C[S+]([O-])c4nc5ccccc5s4)c(O)c(C)c(O)c3[C@@]2(C)C1=O` (stereo partly drawn) [10a, (2R)-4-acetyl-10-[2-(1,3-benzothiazole-2-sulfinyl)acetyl]-5,11,13-trihydroxy-2,12-dimethyl-8-oxatricyclo[7.4.0.0^2,7]trideca-1(13),4,6,9,11-pentaen-3-one], the CC50 at 3 days in data set [1] (HEK293A cells, intrinsic cytotoxicity, 3 days, read-out: HEK293A CC50) is 20 ± 2 µM; in data set [1] (wild-type HEK293A cells, HEK293 wild type, intrinsic cytotoxicity (Figure 6), read-out: CC50), 15 to 20 µM; in data set [2], 15 to 20 µM; in data set [3], 15 to 20 µM.
